Data as given in publication PMC9661476 (Journal of Medicinal Chemistry, 2022).
In brackets after ≈: the same amount, converted by molar mass. Read-outs that look alike come from different tables or passages of the source.

What was measured:
[1] = tested on: plasmatic TTR; conditions: Phase IIa, FAP patients; cited from earlier work
[2] = Aqueous solubility measurement; format: physicochemical; conditions: for solubility: distilled or deionized water; for solubility, single assay: water
Experimental: Then, distilled or deionized water was added under gentle agitation until total dissolution. All the experiments were performed in triplicate.

[3] = assays 1-3 of triplicate, read-out: solubility, single assay
[4] = average of triplicate, read-out: solubility, average

| SMILES | melting point [°C] | Adverse events [1] | solubility [2, 3] [µg/mL] | solubility [2, 4] [µg/mL] | solubility, single assay ([2]; assays 1-3 of triplicate) [µg/mL] |
| --- | --- | --- | --- | --- | --- |
| Cc1ccc(C(=O)c2cc(O)c(O)c([N+](=O)[O-])c2)cc1 [tolcapone, 3,4-dihydroxy-4′-methyl-5-nitrobenzophenone, reference compound] |  | no adverse events were registered | 56 (≈ 205 µM) | 56 (≈ 205 µM) | 55 (≈ 201 µM) |
| O=C(c1cc(O)cc(F)c1)c1cc(O)c(O)c([N+](=O)[O-])c1 [Compound M-23, (3,4-Dihydroxy-5-nitrophenyl)-(3-fluoro-5-hydroxyphenyl)methanone] |  |  | 44 (≈ 150 µM) | 45 (≈ 153 µM) | 45 (≈ 153 µM) |
| O=C(c1ccc(C(F)(F)F)cc1)c1cc(O)c(O)c([N+](=O)[O-])c1 [Compound M-14, (3,4-Dihydroxy-5-nitrophenyl)-[4-(trifluoromethyl)phenyl]methanone] | 68 to 71 |  |  |  |  |

Now from value to molecule, other results behind:

| melting point [°C] | SMILES | Adverse events [1] | solubility [2, 3] [µg/mL] | solubility [2, 4] [µg/mL] | solubility, single assay ([2]; assays 1-3 of triplicate) [µg/mL] |
| --- | --- | --- | --- | --- | --- |
| 135 to 137 | O=C(c1cc(F)cc(F)c1)c1cc(O)c(O)c([N+](=O)[O-])c1 [Compound M-21, (3,5-Difluorophenyl)-(3,4-dihydroxy-5-nitrophenyl)methanone] |  |  |  |  |
| 182 to 184 | O=C(c1cc(Cl)cc(Cl)c1)c1cc(O)c(O)c([N+](=O)[O-])c1 [Compound M-20, (3,5-Dichlorophenyl)-(3,4-dihydroxy-5-nitrophenyl)methanone] |  |  |  |  |
